Measured values published in US20240000820A1, “A METHOD OF TREATING FOOT ROT” (Intervet Inc., priority 2020, published 2024).

Columns and labels:
[1] = test system: naturally occurring foot rot; test: Efficacy of a single subcutaneous dose against naturally occurring foot rot in feedlot cattle (lameness and lesion scoring); assay type: in vivo, bovine animals; conditions: for average lameness score: score guide 1-5 (Table 1); for average lesion score: score guide 1-5 (Table 2)
Protocol: (§1) Thirty animals were enrolled to the Control Group and another thirty animals were enrolled in the Tildipirosin treated Group. The tildipirosin-treated group received a single dose, subcutaneously, while the control group was treated with a saline sterile solution. Both groups (treated and control) were housed in the same paddocks under typical Brazilian feedlot conditions.
Sixty animals were included in the trial in two different phases, according to the number of available animals that fulfill the inclusion criteria. The study was masked. […] The animals were randomized and evenly distributed across the treatment groups according to 15 blocks of 2 animals each in both inclusion dates (there were 2 inclusion dates, for a total of 60 animals).
The effectiveness of tildipirosin for the treatment of foot rot was evaluated by comparing the proportion of treatment success/improvement in the tildipirosin-treated group to the saline-treated control group on Day 7.
The lameness and the lesion scoring are described in Tables 1 and 2 below.
The animals' lesion and lameness score were assessed by the investigator on Days −1 and 0 of the study. To qualify for the effectiveness portion of the study, animals were diagnosed with foot rot by meeting the following criteria: • Lameness Score 3 in at least one foot for 2 consecutive days. • Lesion Score 2 in at least one foot for 2 consecutive days. • Clinically healthy (excepting lameness) • Body weight (348-499 kg body weight) • Age (20-24 months)
On Day 0, before treatment, bacteriological samples were collected from the infected hooves of the enrolled cattle. Lesions and lameness were also assessed on Days 2, 4 and 7. Treatment success, improvement, or failure was determined on Day 7 and was based on lameness and lesion score compared to Day 0. On Day 7, another bacteriological sample was collected from all animals.

[2] = test system: Fusobacterium necrophorum; test: Bacterial evaluation of hoof lesion samples (culture, biochemical tests and PCR) before treatment and on Day 7; assay type: in vivo; conditions: Day 0 vs Day 7, in comparison to the control group
Protocol: On Day 0, before treatment, bacteriological samples were collected from the infected hooves of the enrolled cattle. Lesions and lameness were also assessed on Days 2, 4 and 7. Treatment success, improvement, or failure was determined on Day 7 and was based on lameness and lesion score compared to Day 0. On Day 7, another bacteriological sample was collected from all animals. Bacteriological samples were collected on a sterile scraper and on a sterile swab from the border of healthy and necrotic tissue (around the hoof lesion) of the infected hooves of the enrolled cattle. The tip of the scraper, containing discharge from the lesions, was fractured off into 15 ml tubes containing 7 ml of a semi solid transport media formulated exclusively to anaerobic bacteria and the swab was discharged in a semi solid transport. The tubes were kept under refrigeration (4 to 8° C.) until they arrive into the laboratory. At the laboratory, the samples grew in culture media appropriated to F. necrophorum and Dichelobacter nodosus isolation. Isolates were identified using confirmatory biochemical tests and polymerase chain reaction (PCR) specific to F. necrophorum and D. nodosus species.

[3] = Health observations and adverse events in the foot rot study; assay type: in vivo, bovine animals
Protocol: as §1

[4] = Day 0, before treatment, treated group
[5] = Day 7 after single subcutaneous dose of 4 mg/kg BW

## CC[C@H]1OC(=O)C[C@@H](O)[C@H](C)[C@@H](O[C@@H]2O[C@H](C)[C@@H](O)[C@H](N(C)C)[C@H]2O)[C@@H](CCN2CCCCC2)C[C@@H](C)C(=O)/C=C/C(C)=C/[C@@H]1CN1CCCCC1 [tildipirosin, (4R,5S,6S,7R,9R,11E,13E,15R,16R)-6-[(2R,3R,4S,5S,6R)-4-(dimethylamino)-3,5-dihydroxy-6-methyloxan-2-yl]oxy-16-ethyl-4-hydroxy-5,9,13-trimethyl-7-(2-piperidin-1-ylethyl)-15-(piperidin-1-ylmethyl)-1-oxacyclohexadeca-11,13-diene-2,10-dione]
[1]; [4]
  average lameness score: 3.1
  average lesion score: 2.3
[1]; [5]
  average lameness score: 1.3
  average lesion score: 1.9
[1]; single subcutaneous dose of 4 mg of tildipirosin per kg BW
  treatment of naturally occurring foot rot: effectively treat
[2]
  bacterial evaluation (PCR identification of Fusobacterium necrophorum before vs after treatment): not conclusive
[3]; before or after treatment, single subcutaneous dose 4 mg/kg BW
  abnormal health observations: no abnormal health observations
[3]; tildipirosin-treated group, according to the investigator
  adverse event (broken toenail on Day 7, one animal), relation to treatment: not related to the tildipirosin treatment
